The source of these data is patent US20230027929A1, “MrgprX2 Antagonists and Uses Thereof” (Dermira, Inc., priority 2019, published 2023).

For this experiment, the target named is T1, hMrgpMRGPRX2 (Homo sapiens, UniProt Q96LB1).
T1 construct: expressed in transfected cells
T1 sequence (Q96LB1 1-330): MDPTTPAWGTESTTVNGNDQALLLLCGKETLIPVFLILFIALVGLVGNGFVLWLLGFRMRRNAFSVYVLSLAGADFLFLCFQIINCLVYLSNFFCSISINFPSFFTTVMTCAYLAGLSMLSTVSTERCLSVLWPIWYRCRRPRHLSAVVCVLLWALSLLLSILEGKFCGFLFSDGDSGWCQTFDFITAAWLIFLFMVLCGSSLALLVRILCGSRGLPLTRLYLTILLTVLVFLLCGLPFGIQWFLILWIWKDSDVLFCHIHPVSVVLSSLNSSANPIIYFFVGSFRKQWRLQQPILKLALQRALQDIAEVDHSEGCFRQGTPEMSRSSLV
Briefly: FLIPR intracellular calcium mobilization, antagonist activity in recombinant hMrgpMRGPRX2 expressing cells. Particulars: read-out: Human MrgprX2 Antagonist pIC50 (converted). The experiment is classed as cell-based. An excerpt: Potent and selective hMrgpMRGPRX2 compounds have been generated from compounds identified during a high throughput screening (HTS) campaign and followed up with cycles of structure activity based medicinal chemistry efforts. These compounds were characterized in recombinant hMrgpMRGPRX2 expressing cells for their antagonist activity and the potency was confirmed in the human mast cell line LAD-2, where the target is endogenously expressed. The assays used to determine potencies are functional read-out looking at intracellular calcium mobilization using the FLIPR™ technology. In these FLIPR assays, we test the identified compounds using recombinant cellular systems expressing mouse MrgprB2, mouse MrgprA1, gerbil MrgpMRGPRX2 orthologue, Chinese hamster MrgpMRGPRX2 orthologue and cynomolgus monkey MrgpMRGPRX2 orthologue, respectively for orthologue activity.
(In general: Calcium flux is commonly read through the fluorescence of an indicator in the cells.)
Regarding `O=C(CC1CCOCC1)Nc1ccc(Oc2ccc(F)c(F)c2)cn1` [Compound E030], the IC50 is 7940 nM.

As to `CC1(C)C(C(=O)Nc2ccc(OCCO)cn2)C1(C)C` [Compound E082, N[5-(2-hydroxyethoxy)pyridin-2-yl]-2,2,3,3-tetramethylcyclopropane-l-carboxamide], the IC50 is 4370 nM.

As for `CC1(C)CC1C(=O)Nc1ccc(Oc2ccnc(F)c2)cn1` (stereo not shown) [Compound E072], the IC50 was 1910 nM.

For the molecule `CCN(C[C@@H](O)C(F)(F)F)C(=O)Nc1ccc(Oc2ccc(F)cc2F)cn1` (single isomer, unassigned) [Compound E267], the IC50 was 28.2 nM.

As to `CC1(C)C[C@@H]1C(=O)Nc1ccc(Oc2ccc(F)c(F)c2)cn1` [Compound E043], the IC50 is 3.98 nM.

As for `CCN(C[C@@H](O)C(F)(F)F)C(=O)Nc1cnc(Oc2ccc(Cl)cc2F)cn1` [Compound E257], the IC50 was 14.8 nM.

For the molecule `CC(C)C(=O)Nc1cc(Oc2ccccc2)ccn1` [Compound E145, 2-methyl-N-(4-phenoxy-2-pyridyl)propanamide], the IC50 is 794 nM.

Take `CC1(C)C(C(=O)Nc2ccc(Oc3ccnc(F)c3)cn2)C1(C)C` [Compound E060]: the IC50 was 3.16 nM.

Turning to `CC1(C)C(C(=O)Nc2ccc(Oc3ccc(C(N)=O)nc3)cn2)C1(C)C` [Compound E076], the IC50 is 1260 nM.

As for `CCN(C[C@@H](O)C(F)(F)F)C(=O)Nc1ccc(Oc2ccc(F)c(F)c2)cn1` [Compound E102, 3-[5-(3,4-difluorophenoxy)-2-pyridyl]-1-ethyl-1-[(2R)-3,3,3-trifluoro-2-hydroxy-propyl]urea], the IC50 was 10.7 nM.

Regarding `CC(C)C(=O)Nc1ccc(N2CCc3ccccc32)cn1` [Compound E095, N-(5-indolin-1-yl-2-pyridyl)-2-methyl-propanamide], the IC50 was 3980 nM.

For `CC1(C(=O)Nc2ccc(Oc3cccc(F)c3)cn2)CCOCC1` [Compound E006], the IC50 was 3160 nM.

On to `CC1(C)C(C(=O)Nc2ccc(-c3ccn[nH]3)cn2)C1(C)C` [Compound E176], for which the IC50 was 120 nM.

As to `CC1(C)C(C(=O)Nc2ccc(Oc3ccc(C#N)cc3)cn2)C1(C)C` [Compound E058], the IC50 is 31.6 nM.

For the molecule `CCN(C[C@@H](O)C(F)(F)F)C(=O)Nc1cnc(Oc2ccc(F)cc2Cl)cn1` [Compound E260], the IC50 was 4.07 nM.

As for `COCCOc1ccc(NC(=O)C2C(C)(C)C2(C)C)nc1` [Compound E071], the IC50 is 1100 nM.

As to `CC1(C)C(C(=O)Nc2ccc(Oc3cccnc3)cn2)C1(C)C` [Compound E066], the IC50 is 30.9 nM.

Turning to `O=C(Nc1ccc(Oc2ccc(F)c(F)c2)cn1)C1CCOC1` (stereo not shown) [Compound E037], the IC50 is 6310 nM.

For the molecule `CC(C)C(=O)Nc1ccc(Cc2cccc(F)c2)cn1` [Compound E276, N-[5-[(3-fluorophenyl)methyl]-2-pyridyl]-2-methyl-propanamide], the IC50 is 501 nM.

For the molecule `CC1(C(=O)Nc2ccc(Oc3ccc(F)c(F)c3)cn2)CCOC1` (stereo not shown) [Compound E036], the IC50 is 5010 nM.

As to `CN(C[C@@H](O)C(F)(F)F)C(=O)Nc1cnc(Oc2ccc(F)cc2F)cn1` [Compound E255], the IC50 is 13.2 nM.

Take `CC1(C)C(C(=O)Nc2ccc(Nc3cncc(F)c3)cn2)C1(C)C` [Compound E101]: the IC50 is 912 nM.

As to `CC1(C)C(C(=O)Nc2cc(Oc3cncc(F)c3)ccn2)C1(C)C` [Compound E147, N-[4-[(5-fluoro-3-pyridyl)oxy]-2-pyridyl]-2,2,3,3-tetramethyl-cyclopropanecarboxamide], the IC50 is 7.94 nM.

Consider `COc1ccc(-c2ccc(NC(=O)C(C)C)nc2)cc1` [Compound E172], for which the IC50 is 316 nM.

Take `CC(C)C(=O)Nc1ccc(N2CCCC2)cn1` [Compound E081, 2-methyl-N-(5-pyrrolidin-1-yl-2-pyridyl)propanamide]: the IC50 is 3980 nM.

Consider `CC1(C)C(C(=O)Nc2ccc(Oc3ccnc(C#N)c3)cn2)C1(C)C` [Compound E065], for which the IC50 was 355 nM.

Turning to `O=C(Nc1ccc(Oc2cc(F)cc(F)c2)cn1)N1CC[C@H](CO)C1` [Compound E133], the IC50 is 6170 nM.

With `N#C[C@H]1C[C@@H]1C(=O)Nc1ccc(Oc2ccc(F)c(F)c2)cn1` [Compound E050], the IC50 was 398 nM.

As to `CC1(C)C(C(=O)Nc2ccc(-c3ncco3)cn2)C1(C)C` [Compound E198, 2,2,3,3-tetramethyl-N-(5-oxazol-2-yl-2-pyridyl)cyclopropanecarboxamide], the IC50 was 33.9 nM.

For the molecule `CC1(C)C(C(=O)Nc2cc(C#N)ccn2)C1(C)C` [Compound E207], the IC50 is 3160 nM.

Regarding `CC1(C)C(C(=O)Nc2ccc(-n3ccc(C#N)n3)cn2)C1(C)C` [Compound E088], the IC50 is 28.2 nM.

On to `CCN(C[C@@H](O)C(F)(F)F)C(=O)Nc1cc(Oc2cc(F)cc(F)c2)ccn1` [Compound E163, 3-[4-(3,5-difluorophenoxy)-2-pyridyl]-1-ethyl-1-[(2R)-3,3,3-trifluoro-2-hydroxy-propyl]urea], for which the IC50 was 0.575 nM.

Take `CC1(C)C(C(=O)Nc2ccc(OCc3cncc(F)c3)cn2)C1(C)C` [Compound E086]: the IC50 was 204 nM.

As for `CC1(C)C(C(=O)Nc2ccc(N3CCC(F)C3)cn2)C1(C)C` (stereo not shown) [Compound E099], the IC50 is 25.1 nM.

As for `CNc1ccc(NC(=O)C2C(C)(C)C2(C)C)nc1` [Compound E079, 2,2,3,3-tetramethyl-N-[5-(methylamino)-2-pyridyl]cyclopropanecarboxamide], the IC50 was 1660 nM.

With `O=C(Nc1ccc(Oc2ccc(F)c(F)c2)cn1)C1CCCC1` [Compound E031], the IC50 is 63.1 nM.

On to `CCN(C[C@@H](O)C(F)(F)F)C(=O)Nc1cnc(Oc2c(F)cccc2F)cn1` [Compound E244], for which the IC50 was 26.9 nM.

For the molecule `O=C(CC1CC1)Nc1ccc(Oc2ccc(F)c(F)c2)cn1` [Compound E046], the IC50 was 398 nM.

`CN(C)C(=O)Nc1ccc(-c2cc(F)cc(F)c2)cn1` [Compound E193]: the IC50 was 6310 nM.

Turning to `CCN(C[C@@H](O)C(F)(F)F)C(=O)Nc1ccc(F)cn1` [Compound E196], the IC50 was 851 nM.

As for `CC1(C)C(C(=O)Nc2cnc(-c3cc(F)cc(F)c3)cn2)C1(C)C` [Compound E227], the IC50 is 33.9 nM.

For the molecule `CCN(C[C@@H](O)C(F)(F)F)C(=O)Nc1cnc(Oc2ccc(F)cc2)cn1` [Compound E252], the IC50 was 589 nM.

Regarding `CC1(C)C[C@H]1C(=O)Nc1ccc(Oc2ccc(F)c(F)c2)cn1` (single isomer, unassigned) [Compound E078], the IC50 is 7.94 nM.

Consider `O=C(Nc1ccc(Oc2ccc(F)c(F)c2)cn1)[C@H]1C[C@@H]1C(F)(F)F` [Compound E049], for which the IC50 is 25.1 nM.

As for `CC1(C(=O)Nc2ccc(Oc3cccc(F)c3)cn2)CCOC1` (stereo not shown) [Compound E011], the IC50 is 6310 nM.

Take `CCN(C[C@@H](O)C(F)(F)F)C(=O)Nc1cnc(Oc2ccccc2F)cn1` [Compound E248]: the IC50 was 8.51 nM.

As for `CCN(C[C@H](C)O)C(=O)Nc1cnc(Oc2cc(F)cc(F)c2)cn1` [Compound E235], the IC50 was 1410 nM.

As to `CC(O)CN(CC(F)(F)F)C(=O)Nc1ccc(Oc2ccc(F)c(F)c2)cn1` (stereo not shown) [Compound E114], the IC50 is 1200 nM.

Regarding `CC1(C)CC1C(=O)Nc1ccc(-c2cc(F)cc(C#N)c2)cn1` (stereo not shown) [Compound E188], the IC50 is 50.1 nM.
